This passage reports inhibition results from PMC8348101, “Personal Glucose Meter for α-Glucosidase Inhibitor Screening Based on the Hydrolysis of Maltose” (Molecules, 2021).

The target in the test is T1, α-glucosidase (Aspergillus niger, UniProt P56526).
T1 construct: gene aglA
T1 sequence (P56526 26-985): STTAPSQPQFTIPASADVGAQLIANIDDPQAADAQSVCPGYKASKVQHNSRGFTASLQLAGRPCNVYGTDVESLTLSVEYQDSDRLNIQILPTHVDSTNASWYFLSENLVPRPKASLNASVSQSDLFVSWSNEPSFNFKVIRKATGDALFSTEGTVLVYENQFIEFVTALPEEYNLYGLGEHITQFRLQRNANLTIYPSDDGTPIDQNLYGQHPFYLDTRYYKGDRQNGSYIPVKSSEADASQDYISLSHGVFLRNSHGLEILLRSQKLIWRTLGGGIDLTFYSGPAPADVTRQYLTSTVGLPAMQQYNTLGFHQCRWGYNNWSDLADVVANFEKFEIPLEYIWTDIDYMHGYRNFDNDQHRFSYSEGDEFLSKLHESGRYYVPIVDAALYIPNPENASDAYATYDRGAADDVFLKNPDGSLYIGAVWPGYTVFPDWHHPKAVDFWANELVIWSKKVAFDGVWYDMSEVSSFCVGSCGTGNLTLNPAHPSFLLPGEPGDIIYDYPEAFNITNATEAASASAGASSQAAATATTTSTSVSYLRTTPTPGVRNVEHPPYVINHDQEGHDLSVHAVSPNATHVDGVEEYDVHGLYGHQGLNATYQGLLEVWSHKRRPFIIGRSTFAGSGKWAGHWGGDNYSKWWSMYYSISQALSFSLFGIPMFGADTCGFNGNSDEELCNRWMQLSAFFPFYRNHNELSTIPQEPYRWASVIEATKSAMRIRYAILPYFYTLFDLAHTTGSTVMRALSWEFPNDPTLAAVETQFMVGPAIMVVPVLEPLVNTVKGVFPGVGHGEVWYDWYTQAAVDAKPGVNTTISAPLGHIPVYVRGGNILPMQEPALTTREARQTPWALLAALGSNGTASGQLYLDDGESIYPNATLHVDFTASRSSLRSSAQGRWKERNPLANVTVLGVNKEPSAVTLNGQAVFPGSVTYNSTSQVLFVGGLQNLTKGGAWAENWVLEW
The test is described as follows: personal glucose meter assay of maltose hydrolysis, single concentration […]. Format: biochemical.

For the molecule `OC[C@H]1O[C@@H](Oc2c(O)cc(O)cc2/C=C/c2ccc(O)cc2)[C@H](O)[C@@H](O)[C@@H]1O` [TSG, 2,3,5,4′-tetrahydroxy stilbene-2-O-β-D-glucoside], 5000 µM produced 27 ± 2% inhibition. `O=C(/C=C/c1ccc(O)c2c1[C@H](C(=O)O)[C@@H](c1ccc(O)c(O)c1)O2)O[C@H](Cc1ccc(O)c(O)c1)C(=O)O` [lithospermic acid] had an inhibition at 5000 µM of 52.5 ± 3%. As for `O=Cc1ccc(O)c(O)c1` [protocatechualdehyde], the inhibition at 5000 µM stood at 36.8 ± 2.8%.
